Data on 26 compounds can be found in patent US9359377B2, “Substituted imidazo[1,2-a]imidazo[4′,5′:4,5]pyrrolo[1,2-d]pyrazines for treating respiratory syncytial virus infections” (Biota Scientific Management Pty Ltd., priority 2011, dated 2016).

A value given as a limit tells only on which side of the number the result lay.

In general, EC50 refers to the concentration needed to bring the measured effect to its halfway point.

One assay concerns RSV A2. Kind of assay: RSV antiviral cytopathic effect (CPE) assay in HEp2 cells, MTT readout. It counts as cell-based, respiratory syncytial virus. As to conditions: HEp2 cells infected with RSV A2, moi ~0.01, 5 days, inhibition of CPE by 50%; read-out: Activity Range (RSV A2 EC50 mean values). How it is done: RSV Antiviral Assay Protocol
Compounds of the invention were tested for their antiviral activity against respiratory syncytial virus. Cytopathic effect (CPE) assays were performed essentially as described in the literature (see, for example, Watanabe et al, 1994, J. Virological Methods, 48:257). Serial dilutions of the test compounds were made in 96 well plates. HEp2 cells (1.0×10^4 cells/well) were infected with RSV at a low multiplicity of infection (e.g. RSV A2 at an moi of ˜0.01) and added to plates to assess antiviral activity. Uninfected HEp2 cells were used to assess compound cytotoxicity. Assays were incubated for 5 days at 37° C. in a 5% CO2 atmosphere. The extent of CPE was determined via metabolism of the vital dye 3-(4,5-dimethylthiaxol-2-yl)-2,5-diphenyltetrazolium bromide (MTT). MTT (1 mg/ml) was added to each well and plates incubated for 2 hours incubation at 37° C. Wells were aspirated, iso-propanol (200 μL) was added and absorbance values read at 540/650 nm. Compound concentrations that inhibited CPE by 50% (EC50) and developed cytotoxicity (CC50) were calculated using non-linear regression analysis.
In the inventors' experience, replicate EC50 values usually fall within three standard deviations of the mean.
(Cytopathic effects are the visible damage that an infection or toxin causes in cultured cells.)
For “11a-(4-fluorophenyl)-1-(furan-2-ylacetyl)-2,3,11,11a-tetrahydro-1H,5H-imidazo[1,2-a]thieno[3′,2′:4,5]pyrrolo[1,2-d]pyrazin-5-one [Compound 22]”, the EC50 is over 10000 nM.

Staying with this assay, now noted: human respiratory syncytial virus, HEp-2, 120 h; HEp2 cells infected with RSV A2, moi ~0.01, 5 days, inhibition of CPE by 50%; read-out: Activity Range (RSV A2 EC50 mean values).
For `Cc1nocc1C(=O)N1CCN2C(=O)c3cc4cccnc4n3CC12c1ccc(F)cc1` (centres unmarked) [Compound 11, 12a-(4-fluorophenyl)-1-[(3-methyl-1,2-oxazol-4-yl)carbonyl]-2,3,12,12a-tetrahydro-1H,5H-imidazo[1,2-a]pyrido[3′,2′:4,5]pyrrolo[1,2-d]pyrazin-5-one], the EC50 was at most 49 nM. Take `COc1ccc(C23Cn4c(cc5cccnc54)C(=O)N2CCN3C(=O)c2conc2C)cc1` (centres unmarked) [Compound 8, 12a-(4-methoxyphenyl)-1-[(3-methyl-1,2-oxazol-4-yl)carbonyl]-2,3,12,12a-tetrahydro-1H,5H-imidazo[1,2-a]pyrido[3′,2′:4,5]pyrrolo[1,2-d]pyrazin-5-one]: the EC50 was at most 49 nM. Consider `O=C(NCc1ccccc1)N1CCN2C(=O)c3cc4ccsc4n3CC12c1ccc(F)cc1` (centres unmarked) [Compound 23, N-benzyl-11a-(4-fluorophenyl)-5-oxo-2,3,11,11a-tetrahydro-1H,5H-imidazo[1,2-a]thieno[3′,2′:4,5]pyrrolo[1,2-d]pyrazine-1-carboxamide], for which the EC50 was over 10000 nM.

Turning to `CC(C)C(=O)N1CCN2C(=O)c3cc4ccsc4n3CC21c1ccc(F)cc1` (centres unmarked) [Compound 17, 11a-(4-fluorophenyl)-1-(2-methylpropanoyl)-2,3,11,11a-tetrahydro-1H,5H-imidazo[1,2-a]thieno[3′,2′:4,5]pyrrolo[1,2-d]pyrazin-5-one], the concentration giving a half-maximal response (EC50) was over 10000 nM. As for `O=C1c2cc3ccsc3n2CC2(c3ccc(F)cc3)N1CCN2C(=O)C1CCCCC1` (centres unmarked) [Compound 14, 1-(cyclohexylcarbonyl)-11a-(4-fluorophenyl)-2,3,11,11a-tetrahydro-1H,5H-imidazo[1,2-a]thieno[3′,2′:4,5]pyrrolo[1,2-d]pyrazin-5-one], the EC50 was over 10000 nM.

Consider `O=C(NC1CCCCC1)N1CCN2C(=O)c3cc4ccsc4n3CC12c1ccc(F)cc1` (centres unmarked) [Compound 24, N-cyclohexyl-11a-(4-fluorophenyl)-5-oxo-2,3,11,11a-tetrahydro-1H,5H-imidazo[1,2-a]thieno[3′,2′:4,5]pyrrolo[1,2-d]pyrazine-1-carboxamide], for which the concentration giving a half-maximal response (EC50) was over 10000 nM. In the case of `Cc1nocc1C(=O)N1CCN2C(=O)c3cc4ncccc4n3CC12c1ccc(F)cc1` (centres unmarked) [Compound 12, 12a-(4-fluorophenyl)-1-[(3-methyl-1,2-oxazol-4-yl)carbonyl]-2,3,12,12a-tetrahydro-1H,5H-imidazo[1,2-a]pyrido[2′,3′:4,5]pyrrolo[1,2-d]pyrazin-5-one], the EC50 was 100 to 499 nM. The same measure, in the same setting: as for `COc1ccc(C23Cn4c(cc5[nH]c(C)nc54)C(=O)N2CCN3C(=O)c2conc2C)cc1` (centres unmarked) [Compound 2, 5a-(4-methoxyphenyl)-2-methyl-6-[(3-methyl-1,2-oxazol-4-yl)carbonyl]-5a,6,7,8-tetrahydro-5H-imidazo[1,2-a]imidazo[4′,5′:4,5]pyrrolo[1,2-d]pyrazin-10(1H)-one], the figure is at most 49 nM; as for `COc1ccc(C23Cn4c(cc5ccccc54)C(=O)N2CCN3C(=O)c2conc2C)cc1` (centres unmarked) [Compound 4, 12a-(4-methoxyphenyl)-1-[(3-methyl-1,2-oxazol-4-yl)carbonyl]-2,3,12,12a-tetrahydro-1H,5H-imidazo[1′,2′:4,5]pyrazino[1,2-a]indol-5-one], at most 49 nM. Turning to `COc1ccc(C23Cn4c(cc5occc54)C(=O)N2CCN3C(=O)c2conc2C)cc1` (centres unmarked) [Compound 3, 5a-(4-methoxyphenyl)-6-[(3-methyl-1,2-oxazol-4-yl)carbonyl]-5a,6,7,8-tetrahydro-5H,10H-furo[2′,3′:4,5]pyrrolo[1,2-a]imidazo[1,2-d]pyrazin-10-one], the concentration for a half-maximal effect (EC50) lay in the range of 50 to 99 nM. With `Cc1nocc1C(=O)N1CCN2C(=O)c3cc4ccsc4n3CC12c1ccc(F)cc1` (centres unmarked) [Compound 6, 11a-(4-fluorophenyl)-1-[(3-methyl-1,2-oxazol-4-yl)carbonyl]-2,3,11,11a-tetrahydro-1H,5H-imidazo[1,2-a]thieno[3′,2′:4,5]pyrrolo[1,2-d]pyrazin-5-one], the EC50 is at most 49 nM. As for `Cc1ccc(C23Cn4c(cc5ccsc54)C(=O)N2CCN3C(=O)c2conc2C)cn1` (centres unmarked) [Compound 13, 1-[(3-methyl-1,2-oxazol-4-yl)carbonyl]-11a-(6-methylpyridin-3-yl)-2,3,11,11a-tetrahydro-1H,5H-imidazo[1,2-a]thieno[3′,2′:4,5]pyrrolo[1,2-d]pyrazin-5-one], the concentration for a half-maximal effect (EC50) is at most 49 nM.

Turning to `O=C(CC1CCCCC1)N1CCN2C(=O)c3cc4ccsc4n3CC12c1ccc(F)cc1` (stereo not drawn) [Compound 19, l-(cyclohexylacetyl)-11a-(4-fluorophenyl)-2,3,11,11a-tetrahydro-1H,5H-imidazo[1,2-a]thieno[3′,2′:4,5]pyrrolo[1,2-d]pyrazin-5-one], the EC50 was over 10000 nM. `Cc1ccc(C23Cn4c(cc5cccnc54)C(=O)N2CCN3C(=O)c2conc2C)cc1` (centres unmarked) [Compound 10, 1-[(3-methyl-1,2-oxazol-4-yl)carbonyl]-12a-(4-methylphenyl)-2,3,12,12a-tetrahydro-1H,5H-imidazo[1,2-a]pyrido[3′,2′:4,5]pyrrolo[1,2-d]pyrazin-5-one]: the EC50 is at most 49 nM. As to `O=C1c2cc3ccsc3n2CC2(c3ccc(F)cc3)N1CCN2C(=O)C1CC1` (centres unmarked) [Compound 16, 1-(cyclopropylcarbonyl)-11a-(4-fluorophenyl)-2,3,11,11a-tetrahydro-1H,5H-imidazo[1,2-a]thieno[3′,2′:4,5]pyrrolo[1,2-d]pyrazin-5-one], the EC50 is over 10000 nM. Turning to `O=C1c2cc3ccsc3n2CC2(c3ccc(F)cc3)N1CCN2S(=O)(=O)Cc1ccccc1` (centres unmarked) [Compound 26, 1-(benzylsulfonyl)-11a-(4-fluorophenyl)-2,3,11,11a-tetrahydro-1H,5H-imidazo[1,2-a]thieno[3′,2′:4,5]pyrrolo[1,2-d]pyrazin-5-one], the EC50 was over 10000 nM. Still for that read-out and setting: as for `COc1ccc(C23Cn4c(cc5ccsc54)C(=O)N2CCN3C(=O)c2conc2C)cc1` (centres unmarked) [Compound 1, 11a-(4-methoxyphenyl)-1-[(3-methyl-1,2-oxazol-4-yl)carbonyl]-2,3,11,11a-tetrahydro-1H,5H-imidazo[1,2-a]thieno[3′,2′:4,5]pyrrolo[1,2-d]pyrazin-5-one], the figure is at most 49 nM; as for `COc1ccc(C23Cn4c(cc5ncccc54)C(=O)N2CCN3C(=O)c2conc2C)cc1` (centres unmarked) [Compound 9, 12a-(4-methoxyphenyl)-1-[(3-methyl-1,2-oxazol-4-yl)carbonyl]-2,3,12,12a-tetrahydro-1H,5H-imidazo[1,2-a]pyrido[2′,3′:4,5]pyrrolo[1,2-d]pyrazin-5-one], 100 to 499 nM. For the compound `O=C1c2cc3ccsc3n2CC2(c3ccc(F)cc3)N1CCN2S(=O)(=O)c1ccccc1` (centres unmarked) [Compound 25, 11a-(4-fluorophenyl)-1-(phenylsulfonyl)-2,3,11,11a-tetrahydro-1H,5H-imidazo[1,2-a]thieno[3′,2′:4,5]pyrrolo[1,2-d]pyrazin-5-one], the EC50 was over 10000 nM. As for `O=C1c2cc3ccsc3n2CC2(c3ccc(F)cc3)N1CCN2S(=O)(=O)c1ccc([N+](=O)[O-])cc1` (centres unmarked) [Compound 27, 11a-(4-fluorophenyl)-1-[(4-nitrophenyl)sulfonyl]-2,3,11,11a-tetrahydro-1H,5H-imidazo[1,2-a]thieno[3′,2′:4,5]pyrrolo[1,2-d]pyrazin-5-one], the EC50 was in the range of 500 to 10000 nM.

Consider `Cc1ocnc1C(=O)N1CCN2C(=O)c3cc4ccsc4n3CC12c1ccc(F)cc1` (centres unmarked) [Compound 21, 11a-(4-fluorophenyl)-1-[(5-methyl-1,3-oxazol-4-yl)carbonyl]-2,3,11,11a-tetrahydro-1H,5H-imidazo[1,2-a]thieno[3′,2′:4,5]pyrrolo[1,2-d]pyrazin-5-one], for which the EC50 was in the range of 100 to 499 nM.

`COc1ccc(C23Cn4c(cc5sccc54)C(=O)N2CCN3C(=O)c2conc2C)cc1` (centres unmarked) [Compound 5, 5a-(4-methoxyphenyl)-6-[(3-methyl-1,2-oxazol-4-yl)carbonyl]-5a,6,7,8-tetrahydro-5H,10H-imidazo[1,2-a]thieno[2′,3′:4,5]pyrrolo[1,2-d]pyrazin-10-one]: the EC50 was 100 to 499 nM. Regarding `Cc1cc(C(=O)N2CCN3C(=O)c4cc5ccsc5n4CC23c2ccc(F)cc2)no1` (centres unmarked) [Compound 18, 11a-(4-fluorophenyl)-1-[(5-methyl-1,2-oxazol-3-yl)carbonyl]-2,3,11,11a-tetrahydro-1H,5H-imidazo[1,2-a]thieno[3′,2′:4,5]pyrrolo[1,2-d]pyrazin-5-one], the EC50 was over 10000 nM. For `Cc1ccc(C23Cn4c(cc5ccsc54)C(=O)N2CCN3C(=O)c2conc2C)cc1` (centres unmarked) [Compound 7, 1-[(3-methyl-1,2-oxazol-4-yl)carbonyl]-11a-(4-methylphenyl)-2,3,11,11 a-tetrahydro-1H,5H-imidazo[1,2-a]thieno[3′,2′:4,5]pyrrolo[1,2-d]pyrazin-5-one], the EC50 was at most 49 nM. `O=C(c1ccco1)N1CCN2C(=O)c3cc4ccsc4n3CC12c1ccc(F)cc1` (centres unmarked) [Compound 15, 11a-(4-fluorophenyl)-1-(furan-2-ylcarbonyl)-2,3,11,11a-tetrahydro-1H,5H-imidazo[1,2-a]thieno[3′,2′:4,5]pyrrolo[1,2-d]pyrazin-5-one]: the EC50 was over 10000 nM.
